This note sets out measurements from ChEMBL document CHEMBL1201862, “PubChem BioAssay data set” (2004).

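96-well plates; 48 h exposure; 5 concentrations. Endpoints by linear interpolation between flanking doses. Not reached: highest tested concentration assigned. Abbreviation: GI50, concentration required for 50% inhibition of growth.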 Activity calls are given as the source filed them. Rule as the data show it: active = GI50 up to about 1.1 µM and inactive = higher.

Among the test systems are KM12; DLD-1; SNB-75; K562; M19-MEL; HOP-18; 786-0; SR; SN12C; TK-10; DMS-114; KM-20L2; RXF 393; SNB-19; DMS-273; NCI/ADR-RES; PC-3; DU-145; T47D; Hs-578T.
Experiment in all cases: NCI-60 cell line screen, 48 h

Take `COc1ccc(C2C(N)=NCC2c2ccccn2)cc1` (configuration not stated): the GI50 with KM12 was > 100 µM (inactive); in the test on DLD-1, > 100 µM (inactive); in the test with SNB-75, > 100 µM (inactive); in the test on K562, > 100 µM (inactive); with M19-MEL, > 100 µM (inactive); in the test with HOP-18, 30.1 µM (inactive). The GI50 with 786-0, in the test with SR, with SN12C, with TK-10, in the test on DMS-114 and in the test on KM-20L2 was > 100 µM (inactive) in each case. The GI50 with RXF 393 and in the test with SNB-19 was > 100 µM (inactive) in each case.
With `CC12CC3(C)CC(C)(C1)CC(N=[N+]=[N-])(C2)C3`, the GI50 with KM12, in the test on DLD-1, in the test on SNB-75, in the test on K562, with M19-MEL and in the test on HOP-18 was > 100 µM (inactive) throughout. Also, the GI50 with 786-0, in the test on SR, in the test on SN12C, with TK-10, with DMS-114 and in the test on DMS-273 was > 100 µM (inactive) throughout. The GI50 in the test on RXF 393 and in the test with SNB-19 was > 100 µM (inactive) in each case.
For `Cc1[nH]c(=O)[nH]c(=O)c1/C=C/C(=O)NC(CO)C[S+]([O-])C[S+](C)[O-]` (configuration not stated), the GI50 in the test on KM12 was 18.4 µM (inactive); in the test on DLD-1, 20.4 µM (inactive); in the test with SNB-75, 7.18 µM (inactive); in the test with K562, 19.5 µM (inactive); in the test on NCI/ADR-RES, 24.8 µM (inactive); with M19-MEL it was 15 µM (inactive). The GI50 is 59.3 µM (inactive) in the test with HOP-18; 14.2 µM (inactive) in the test on SN12C; 11.1 µM (inactive) in the test on DMS-114; 36.9 µM (inactive) in the test with KM-20L2; 21 µM (inactive) in the test on DMS-273; 20.8 µM (inactive) in the test with RXF 393. The GI50 in the test on SNB-19 is 13.2 µM (inactive).
On to `CN(C)C(=S)/N=c1\ss/c(=N\S(=O)(=O)c2ccccc2)n1-c1ccccc1`, for which the GI50 in the test with KM12 is 0.217 µM (active); with DLD-1, 13.5 µM (inactive); in the test with SNB-75, > 100 µM (inactive); in the test on K562, 0.953 µM (active); in the test on M19-MEL it was 19.4 µM (inactive); with HOP-18 it was 32.6 µM (inactive). Moreover, the GI50 with 786-0 is 30.4 µM (inactive); in the test with SN12C, 33 µM (inactive); in the test on TK-10, 40.1 µM (inactive); in the test with DMS-114 it was 2.08 µM (inactive); in the test with DMS-273, 12.9 µM (inactive); with RXF 393, 57.5 µM (inactive).
In the case of `S=c1sc2cscc2s1`, the GI50 in the test with KM12 was 17.6 µM (inactive); in the test with DLD-1 it was 21 µM (inactive); in the test on SNB-75, 16.7 µM (inactive); in the test on K562, 42.6 µM (inactive); with M19-MEL it was 18.5 µM (inactive); in the test on HOP-18, 20.7 µM (inactive). The GI50 with 786-0 was 19.8 µM (inactive); in the test with SR it was 27.8 µM (inactive); in the test on SN12C, 32.6 µM (inactive); with TK-10, 23 µM (inactive); in the test on DMS-114 it was 22.8 µM (inactive); in the test with KM-20L2, 27 µM (inactive). The GI50 in the test with DMS-273 was 31.1 µM (inactive); in the test on RXF 393, 35.2 µM (inactive); with SNB-19, 21.3 µM (inactive).
On to `COc1ccc(C2=C(Cl)c3cc(OC)c(OC)cc3C2Cl)cc1` (configuration not stated), for which the GI50 was 13.6 µM (inactive) in the test on KM12; 12.8 µM (inactive) with PC-3; 0.499 µM (active) in the test on SNB-75; 5.24 µM (inactive) with K562; 17.9 µM (inactive) in the test on DU-145; 12.7 µM (inactive) in the test on NCI/ADR-RES. Besides, the GI50 in the test on M19-MEL is 18.2 µM (inactive); in the test with HOP-18, 20.3 µM (inactive); in the test on 786-0 it was 12.2 µM (inactive); with T47D it was 13.3 µM (inactive); in the test on SR, 3.27 µM (inactive); with SN12C it was 13.5 µM (inactive). Moreover, the GI50 in the test with TK-10 is 19.7 µM (inactive); in the test on DMS-114, 14.1 µM (inactive); in the test with KM-20L2 it was 15.9 µM (inactive); in the test with DMS-273, 17.2 µM (inactive); with RXF 393, 14.5 µM (inactive); with SNB-19, 18.7 µM (inactive). For the same molecule, in the test with Hs-578T, the GI50 was 17.3 µM (inactive).
As to `CC(=O)OCC1=C(COC(C)=O)C(=O)c2c(O)ccc(O)c2C1=O`, the GI50 in the test on KM12 is 13.3 µM (inactive); with DLD-1, 1.43 µM (inactive); with SNB-75, 16.1 µM (inactive); in the test with K562, 17.9 µM (inactive); with M19-MEL, 1.73 µM (inactive); in the test on HOP-18, 21 µM (inactive). In addition, the GI50 is 5.47 µM (inactive) in the test on SR; 10.4 µM (inactive) in the test with SN12C; 16.3 µM (inactive) with TK-10; 11.2 µM (inactive) in the test with DMS-114; 13.4 µM (inactive) in the test on KM-20L2; 15.5 µM (inactive) in the test on DMS-273.
Regarding `CC(=O)OCC1OC(n2cc(F)c(=O)[nH]c2=O)C(N)C(OC(C)=O)C1OC(C)=O` (configuration not stated), the GI50 with KM12, with DLD-1, in the test with SNB-75, in the test on K562, in the test with NCI/ADR-RES and in the test on M19-MEL was > 100 µM (inactive) in each case. The GI50 in the test on HOP-18, in the test with SN12C, in the test on DMS-114, in the test with KM-20L2, in the test with DMS-273 and in the test on RXF 393 was > 100 µM (inactive) throughout. Further, the GI50 in the test on SNB-19 is > 100 µM (inactive).
As for `O=C(Nc1nc2ncn(CCNCc3ccccc3)c2c(=O)[nH]1)c1ccccc1`, the GI50 is > 100 µM (inactive) in the test with KM12; > 100 µM (inactive) with DLD-1; 90.2 µM (inactive) with SNB-75; > 100 µM (inactive) in the test with K562; > 100 µM (inactive) in the test with M19-MEL; > 100 µM (inactive) in the test with HOP-18. The GI50 in the test on 786-0, in the test with SR, with SN12C, in the test on TK-10, with DMS-114 and with KM-20L2 was > 100 µM (inactive) each time. Besides, the figures for the GI50 in the test with DMS-273 and with RXF 393 were > 100 µM (inactive) and 91 µM (inactive), respectively.
For `O=C1Nc2ccccc2Nc2ccncc21`, the GI50 was > 100 µM (inactive) with KM12; > 100 µM (inactive) in the test with DLD-1; > 76 µM (inactive) in the test with SNB-75; > 100 µM (inactive) in the test on K562; > 100 µM (inactive) in the test on NCI/ADR-RES; > 100 µM (inactive) in the test on M19-MEL. In addition, the GI50 is > 100 µM (inactive) in the test on HOP-18; > 31.6 µM (inactive) with SN12C; > 100 µM (inactive) in the test on DMS-114; > 100 µM (inactive) in the test with KM-20L2; > 100 µM (inactive) in the test on DMS-273; > 100 µM (inactive) in the test on RXF 393. Besides, in the test on SNB-19, the GI50 was > 100 µM (inactive).
Consider `COc1ccc2[nH]c(Cl)c(/C=C3/C(=O)Nc4cc(C)c(OC)cc43)c2c1`, for which the GI50 is 3.35 µM (inactive) in the test on KM12; 3.33 µM (inactive) in the test on PC-3; 10.8 µM (inactive) in the test with SNB-75; 4.39 µM (inactive) in the test on K562; 14.3 µM (inactive) with DU-145; 2.44 µM (inactive) in the test on NCI/ADR-RES. For the same molecule, the GI50 is 5.68 µM (inactive) with 786-0; 5.96 µM (inactive) in the test with T47D; 3.08 µM (inactive) in the test with SR; 7.43 µM (inactive) in the test on SN12C; 9.18 µM (inactive) with TK-10; 11.1 µM (inactive) with RXF 393. For the same molecule, the GI50 was 8.26 µM (inactive) in the test on SNB-19 and 3.81 µM (inactive) in the test with Hs-578T.
As for `OCc1nnn2c1CCC2`, the GI50 in the test on KM12, in the test on DLD-1, in the test with SNB-75, in the test on K562, in the test on M19-MEL and in the test on HOP-18 was > 100 µM (inactive) in each case. In addition, the GI50 in the test on SR, with SN12C, with TK-10, in the test with KM-20L2 and with RXF 393 was > 100 µM (inactive) throughout.
As to `O=C1C(c2ccc(C3=[N+]([O-])c4cc([N+](=O)[O-])ccc4C3=O)cc2)=[N+]([O-])c2cc([N+](=O)[O-])ccc21`, the GI50 was > 10 µM (inactive) in the test on KM12; > 10 µM (inactive) with DLD-1; 36.2 µM (inactive) with SNB-75; > 10 µM (inactive) in the test on K562; > 10 µM (inactive) in the test on M19-MEL; > 100 µM (inactive) in the test with HOP-18. Also, the GI50 with 786-0 was 58.9 µM (inactive); in the test with SN12C, > 10 µM (inactive); in the test on TK-10, > 10 µM (inactive); in the test with DMS-114 it was > 10 µM (inactive); in the test on KM-20L2, > 10 µM (inactive); in the test with DMS-273 it was > 10 µM (inactive). For the same molecule, the GI50 in the test with RXF 393 and in the test with SNB-19 was > 10 µM (inactive) in each case.
Regarding `CC1=NN(C(=O)c2ccc(Cl)cc2)C(=O)C1/N=N/c1ccc(S(=O)(=O)Nc2ncccn2)cc1` (configuration not stated), the GI50 is > 100 µM (inactive) in the test with KM12; 0.217 µM (active) in the test on PC-3; > 100 µM (inactive) in the test with SNB-75; > 100 µM (inactive) with K562; > 100 µM (inactive) in the test with DU-145; > 100 µM (inactive) with NCI/ADR-RES. For the same molecule, the GI50 in the test with 786-0, in the test with T47D, with SR, in the test on SN12C, with TK-10 and in the test on RXF 393 was > 100 µM (inactive) each time. Besides, the GI50 in the test on SNB-19 and in the test with Hs-578T was > 100 µM (inactive) throughout.
